Data set [1] has as its system HGF (hepatocyte growth factor). The data set is described as follows: HGF ELISA of culture supernatant. The format is cell-based, human. The following applies: vs untreated control cells and EDTA-treated control cells, FIG. 5. The text has this:
(§1) In vivo conditions in which treatment of cells is required are mostly ischemic anoxic anaerobic conditions in which the cells are injured or broken, and one of major factors in the conditions is HGF (hepatocyte growth factor). Thus, in order to examine the expression level of the hepatocyte growth factor HGF, the supernatant was collected from the cell sample and analyzed by ELISA (enzyme-linked immunosorbent assay) using a HGF-specific antibody according to the manufacturer's protocol.
(An ELISA detects its analyte on a solid surface through an enzyme-linked reagent.)

Data set [2] concerns HGF (hepatocyte growth factor). In words: Suspension culture of single cells using E-cadherin blocker: HGF expression. The format is cell-based, human. The following applies: aggregation inhibited with E-cadherin blocking antibody, Y-27632 for 24 hours, FIG. 9.
Description: as §1
In order to use E-cadherin to induce single-cell culture during suspension culture, the cells were treated with an E-cadherin blocker to inhibit the induction of cell aggregation during suspension culture. Specifically, human mesenchymal stem cells were cultured in 10% FBS-containing α-MEM medium such that no contact inhibition occurred. When a confluence of about 80% was reached, the medium was removed by suction for cell counting, and the cells were washed with PBS (calcium-free and magnesium-free). Then, the cells were treated with 0.25% trypsin/EDTA and allowed to stand in a CO2 incubator at 37° C. for 30 seconds. The cells that dropped into the tube were collected, and the cells remaining in the dish were completely collected with 10% FBS-containing α-MEM, and the collected cells were centrifuged at 1500 rpm for 5 minutes. […]

Data set [3] has as its system BCL-XL. In words: Western blotting of BCL-XL expression in suspension-cultured cells. The format is cell-based, human. The conditions noted are these: Y27632-treated vs control (naive) cells, FIG. 3. As to the method: (§2) In order to measure a change in the expression of an anti-apoptosis factor in a cell sample, the expression level of BCL-XL was measured at the protein level. In addition, the cells were collected after suspension culture for 6 hours, and the degree of phosphorylation of ERK which is involved in the activity of the cells was evaluated. Specifically, the cells were lysed with a reducing agent [Lysis PreMix (4° C. stock)+NaF ([…], ×100)+orthovanadate (200 mM, ×200)+proteinase inhibitor cocktail (1 tablet/10 ml)], and then electrophoresed on SDS-polyacrylamide gel. Then, the cells were transferred to a PVDF transfer membrane (Millipore), after which a change in the expression of the protein was examined by a primary antigen-antibody reaction using BCL-xl (Santa Cruz Biotechnology) and a secondary antigen-antibody reaction using anti-rabbit IgG and anti-mouse IgG.

The subject of data set [4] is Human mesenchymal stem cells (BM-MSC). In words: Suspension culture of human mesenchymal stem cells, trypan blue staining and cell counting. The format is cell-based. The following applies: for cell aggregation / apoptosis of non-aggregated single cells: 24 hours of culture, FIG. 2; for apoptosis of non-aggregated single cells: trypan blue staining. How it is done:
Human mesenchymal stem cells (Lonza, Switzerland) were cultured in 10% FBS-containing α-MEM medium such that no contact inhibition occurred. […] Then, the cells were treated with 0.25% trypsin/EDTA and allowed to stand in a CO2 incubator at 37° C. for 30 seconds. The cells that dropped into the tube were collected, and the cells remaining in the dish were completely collected with 10% FBS-containing α-MEM, and the collected cells were centrifuged at 1500 rpm for 5 minutes. The supernatant medium was removed by suction, and the precipitated cells were suspended in 5 ml of EB medium (80% DMEM/F12 80%+20% serum replacement) and then centrifuged at 1500 rpm for 5 minutes. Then, the cells were suspended in 10 ml of medium (containing or not containing 20 μM Y27632) in a 100 Φ Petri dish at a density of 2.0×10^6 cells. After 24 hours, the aggregated cells were stained with trypan blue, and then counted with an automated cell counter (Invitrogen).

Data set [5] concerns Human mesenchymal stem cells. In words: Suspension culture of human mesenchymal stem cells under anoxic anaerobic condition and cell counting. The format is cell-based. The following applies: for number of dead cells / number of viable cells / total number of cells / viability: anaerobic condition, 20 μM Y27632. How it is done: Human mesenchymal stem cells were cultured in 10% FBS-containing α-MEM medium such that no contact inhibition occurred. […] Then, the cells were treated with 0.25% trypsin/EDTA and allowed to stand in a CO2 incubator at 37° C. for 30 seconds. The cells that dropped into the tube were collected, and the cells remaining in the dish were completely collected with 10% FBS-containing α-MEM, and the collected cells were centrifuged at 2000 rpm for 5 minutes. The supernatant medium was removed by suction, and the precipitated cells were suspended in 5 ml of EB medium (80% DMEM/F12 80%+20% serum replacement) and then centrifuged at 1500 rpm for 5 minutes. Then, the cells were suspended in 10 ml of medium (containing or not containing 20 μM Y27632) in a 100 0 Petri dish at a density of 2.0×10^6 cells. Then, the cells were placed in an anoxic pack (BD Science) to induce an anoxic anaerobic condition. […]

The test system of data set [6] is ERK (extracellular signal-regulated kinase). The data set is described as follows: Western blotting of ERK phosphorylation in suspension-cultured cells. The conditions noted are these: suspension culture for 6 hours, Y27632-treated vs control (naive) cells, FIG. 4. The format is cell-based, human. How it is done:
as §2
In general terms: A western blot detects proteins with antibodies after separation by electrophoresis.

The mark [7] stands for this setting: 20 μM Y27632, suspension culture 24 hours, trypan blue.

By viability is commonly meant a read-out of living cells in per cent, often relative to untreated cells. Higher therefore signals less harm to the cells. Turning to `C[C@@H](N)[C@H]1CC[C@H](C(=O)Nc2ccncc2)CC1.Cl.Cl` (relative stereo) [Y27632, trans-4-[(1R)-1-Aminoethyl]-N-4-pyridinyl-cyclohexanecarboxamide, 2HCl], the “expression level of HGF” value in data set [1] is “significantly higher”. The “HGF efficiency (expression level of HGF)” value in data set [2] is “increased”. Besides, in data set [3], the “expression of the anti-apoptosis factor BCL-XL” value is reported as “significantly increased”. Further, in data set [4] (20 μM Y27632, suspension culture 24 hours), the “total number of cells” value is 1.8×10^6. Further, in data set [4] (setting [7]), the “number of dead cells” value was 0.54×10^6, the “number of viable cells” value is recorded as 1.26×10^6 and the viability amounted to 70%. In addition, in data set [4], the cell aggregation result is recorded as “further increased” and the “apoptosis of non-aggregated single cells” value is recorded as “prevented”. In addition, in data set [5] (6 hours of culture), the “number of dead cells” value was 2.4×10^5, the “number of viable cells” value is on record as 1.2×10^6, the “total number of cells” value is on record as 1.6×10^6 and the viability was 84%. Moreover, in data set [5] (24 hours of culture), the “number of dead cells” value is reported as 1.6×10^5, the “number of viable cells” value is on record as 1.24×10^6, the “total number of cells” value is given as 1.4×10^6 and the viability stood at 90%. The “apoptosis of single cells” value in data set [5] (anoxic anaerobic condition, FIG. 7) is “did not undergo apoptosis”. Further, the “phosphorylation of ERK” value in data set [6] was “significantly increased”.
As for `O=C(O)CN(CCN(CC(=O)O)CC(=O)O)CC(=O)O` [EDTA], in data set [4], the cell aggregation entry is reported as “no cell aggregation occurred” and the “apoptosis of non-aggregated single cells” value is on record as “apoptosis occurred in all the cells”.
